Measurements published in the supplement of paper PMC3493320.

Test system: NCI-H295R
Test: IC50 (antiproliferative, ATP content)
Conditions: 48 h
Summary of the method: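 Compounds were pin-transferred at 8 final concentrations between 0.6 nM and 46 µM onto adrenocortical carcinoma cells (1500 per well, 1536-well plates) that had been cultured overnight in serum-free DMEM with ITS. Plates then stood 48 h at 37 °C, 5% CO2, and ATP was detected by CellTiter-Glo luminescence. IC50 was derived from logistic fits of normalised signal, and compounds giving no concentration response were noted as above the top dose.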

SMILES | IC50 [µM]
C[N+](C)(C)CCOC(=O)C(O)(c1ccccc1)c1ccccc1.[I-] | > 46
C[C@@H](Cc1ccccc1)NCCC(c1ccccc1)c1ccccc1.C[C@H](O)C(=O)O | > 46
O=[C@@](OCC2=CC=CC(OC3=CC=CC=C3)=C2)[C@H]1C(C)(C)C1/C=C(C)/C (some centres undefined) | > 46
Cl.NCCc1cc(O)c(O)cc1O | > 46
Nc1nc(N)nc(-c2cc(Cl)ccc2Cl)n1.O=C(O)/C=C\C(=O)O | > 46
CCCCC/C=C\C/C=C\C/C=C\C/C=C\CCCC(=O)NCC(=O)O | > 46
ClC4=C(Cl)[C@]5(Cl)[C@@]2([H])[C@]([C@](Cl)4[C@](Cl)5Cl)([H])[C@H]3[C@@H]1O[C@@H]1[C@@H]2C3 | > 46
C#C[C@]1(O)CC[C@H]2[C@@H]3CCc4cc(OC)ccc4[C@H]3CC[C@@]21C | > 46
O=C(O)c1nn(Cc2ccc(Cl)cc2Cl)c2ccccc12 | > 46
CCCN(CCC)CCc1cccc2c1CC(=O)N2 | > 46
O=[C@]([C@@H]3N([C@@H]2SC(C)3C)C([C@H]2NC([C@@H](C1=CC=C(C=C1)O)N)=O)=O)O | > 46
CNc1ccc(C(=O)CC(O)CCC(C)C2OC(=O)CC(O)CC(=O)CC(O)CC(O)CC(O)CC(O)CC3(O)CC(O)C(C(=O)OC)C(CC(O[C@@H]4O[C@H](C)[C@@H](O)[C@H](N)[C@@H]4O)/C=C/C=C/C=C/C=C/C=C/C=C/C=C/C2C)O3)cc1 (some centres undefined) | > 46
CCCCN(CCCC)CCCOC(=O)c1ccc(N)cc1 | > 46
CCCCCCCCCCCC(=O)[O][Sn]([CH2]CCC)([CH2]CCC)[O]C(=O)CCCCCCCCCCC | > 46
CC12CC3CC(C)(C1)CC(N)(C3)C2 | > 46
CCCn1c(=O)[nH]c(=O)c2[nH]cnc21 | > 46
O=[N+]([O-])c1cc([As](=O)(O)O)ccc1O | > 46
O=C(NCCCN1CCOCC1)c1ccc(Cl)cc1 | > 46
Cc1ncc(CSSCc2cnc(C)c(O)c2CO)c(CO)c1O.Cl.Cl | > 46
O=[C@](OC)[C@@H]3[C@@]2([H])C[C@@](N4C[C@@]([H])2CC[C@@H]3O)([H])C1=C(CC4)C(C=CC=C5)=C5N1 | > 46
COc1cc(O)c(C(=O)c2ccccc2)cc1S(=O)(=O)O | > 46
[N-]=[N+]=CC(=O)OC[C@H](N)C(=O)O | > 46
[H][C@@]1(CC\C3=C(C4=CC=CS4)/C2=CC=CS2)[N@+](CCCC1)(C3)C.[Br-] | > 46

SMILES | IC50 [µM]
CC(C)(O)C(Cl)(Cl)Cl | > 46
OC(=O)[C@@H](N)C\C2=C\Nc1ccc(O)cc12 | > 46
Nc1ccc(S(=O)(=O)Nc2ccnn2-c2ccccc2)cc1 | > 46
CC(C(=O)O)c1ccc2c(c1)[nH]c1ccc(Cl)cc12 (centres undefined) | > 46
O=CCCCC=O | > 46
CN(C)CCOc1ccccc1Cc1ccccc1.O=C(O)CC(O)(CC(=O)O)C(=O)O | > 46
COc1ccc2c(c1OC)CN1CCc3cc4c(cc3C1C2)OCO4 (centres undefined) | > 46
COc1cc(/C=C/C(=O)N2CCN(CC(=O)N3CCCC3)CC2)cc(OC)c1OC.O=C(O)/C=C\C(=O)O | > 46
CNC(=O)c1c(I)c(C(=O)NCC(=O)Nc2c(I)c(C(=O)O)c(I)c(C(=O)NCCO)c2I)c(I)c(N(C)C(C)=O)c1I | > 46
CN1[C@@H]2CC[C@H]1C[C@@H](OC(c1ccccc1)c1ccccc1)C2 | > 46
CNCCc1ccccn1.CS(=O)(=O)O | > 46
CC(=O)CCCCn1c(=O)c2c(ncn2C)n(C)c1=O | > 46
O[C@@H]1CO[C@H]2[C@@H]1OC[C@@H]2O | > 46
Cc1cc(O)cc2c1O[C@](C)(CCC[C@H](C)CCC[C@H](C)CCCC(C)C)CC2 | > 46
CN(C/C=C/c1ccccc1)Cc1cccc2ccccc12.Cl | > 46
COc1cc2c(cc1OC)[C@@H](c1ccccc1)CN(C)CC2.O=C(O)/C=C\C(=O)O | > 46
OS(C1=C(C(C)C)C=C3C([C@@]2(C)CCC[C@]([C@@](O)=O)(C)[C@@]([H])2CC3)=C1)(=O)=O | > 46
O=C1CCC(N2C(=O)c3ccccc3C2=O)C(=O)N1 (centres undefined) | > 46
Nc1ccc(C(=O)O)cc1 | > 46
F[Si-2](F)(F)(F)(F)F.[NH4+].[NH4+] | > 46
COP(=O)(OC)C(O)C(Cl)(Cl)Cl (centres undefined) | > 46
O=C(CCN1CCN(CCO)CC1)N1c2ccccc2Sc2ccc(C(F)(F)F)cc21 | > 46
CC(=O)N(O)CCCCCNC(=O)CCC(=O)N(O)CCCCCNC(=O)CCC(=O)N(O)CCCCCN.CS(=O)(=O)O | > 46

SMILES | IC50 [µM]
O=C(O)C=CC(=O)Nc1ccc(S(=O)(=O)Nc2nccs2)cc1 | > 46
O[C@]([C@@H](CC3)CC[C@@]3(C#N)C(C=C1OC2CCCC2)=CC=C1OC)=O | > 46
Cl.OC(CCN1CCCC1)(c1ccccc1)C1CCCCC1 (centres undefined) | > 46
CC1=C(C=C/C(C)=C/C=C/C(C)=C/CO)C(C)(C)CCC1 | > 46
CC(=O)NC(Cc1ccccc1)C(=O)O (centres undefined) | > 46
CN1Cc2c(N)cccc2C(c2ccccc2)C1.O=C(O)/C=C\C(=O)O (centres undefined) | > 46
Nc1ccc([As](=O)(O)O)cc1 | > 46
C=C1c2c(Cl)ccc(O)c2C(=O)C2=C(O)[C@]3(O)C(=O)C(C(N)=O)=C(O)[C@@H](N(C)C)[C@@H]3[C@@H](O)[C@H]12.O=C(O)c1cc(S(=O)(=O)O)ccc1O | > 46
C=C[C@H]1CN2CC[C@H]1C[C@H]2[C@H](O)c1ccnc2ccc(OC)cc12 | > 46
O=C(Nc1ccc([N+](=O)[O-])cc1)Nc1ccc([N+](=O)[O-])cc1 | > 46
N#Cc1ccc2c(c1)N(CCCN1CCC(O)CC1)c1ccccc1S2 | > 46
CC=CC1=C(C(=O)O)N2C(=O)[C@@H](NC(=O)[C@H](N)c3ccc(O)cc3)[C@H]2SC1.O | > 46
[O-][n+]1cc[n+]([O-])c2ccccc21 | > 46
C[C@@H](Cc1ccccc1)N(C)C | > 46
CC(C)(C)NC[C@H](O)COc1nsnc1N1CCOCC1 | > 46
O=C(O)C(Cc1cc(I)c(O)c(I)c1)c1ccccc1 (centres undefined) | > 46
CN/C(=C\[N+](=O)[O-])NCCSCc1ccc(CN(C)C)o1 | > 46
O=C([C@@H](N(C)[C@]([C@H](CCC4)N4C([C@@H](CC)N5)=O)=O)CC2=CC=CC=C2)N(CCC1=O)C(C1)C(N[C@H](C(OC(C)[C@H](NC(C6=NC=CC=C6O)=O)C5=O)=O)C3=CC=CC=C3)=O (some centres undefined) | > 46
CC1CCCC(C)N1NC(=O)c1ccc(Cl)c(S(N)(=O)=O)c1 (centres undefined) | > 46
CCC(=O)O[C@]1(C(=O)SCF)[C@H](C)C[C@H]2C3C[C@H](F)C4=CC(=O)C=C[C@]4(C)[C@@]3(F)[C@@H](O)C[C@@]21C (some centres undefined) | > 46
OC(CCN1CCCCC1)(c1ccccc1)c1ccccc1 | > 46
Cc1cc(C(C)(C)C)c(O)c(C)c1CC1=NCCN1 | > 46

Other lines, results leading:

IC50 [µM] | SMILES
> 46 | CCSc1ccc2c(c1)N(CCCN1CCN(C)CC1)c1ccccc1S2.O=C(O)CC(O)C(=O)O.O=C(O)CC(O)C(=O)O
> 46 | O=[C@]([O-])[C@@H]2N1C([C@@]([H])(N3C(C)(C)NC(C4=CC=CC=C4)C3=O)[C@]([H])1SC(C)2C)=O.[K+] (some centres undefined)
> 46 | CCCCCCCCCCCCCC(=O)OC(C)C
> 46 | Cc1c(F)c(N2CCNC(C)C2)cc2c1c(=O)c(C(=O)O)cn2C1CC1.Cl (centres undefined)
> 46 | CC(O)CN(C)C (centres undefined)
> 46 | C[C@@H]1CCC[C@H](C)N1.Cl
> 46 | CC(=C\c1ccccc1)/C=C1/SC(=S)N(CC(=O)O)C1=O
> 46 | CN1CCN2c3ccccc3Cc3ccccc3C2C1 (centres undefined)
> 46 | CC(C)(C)C(=O)OCOC(=O)[C@@H]1N2C(=O)[C@@H](/N=C/N3CCCCCC3)[C@H]2SC1(C)C.Cl
> 46 | CC(C)(Oc1ccc(C2CC2(Cl)Cl)cc1)C(=O)O (centres undefined)
> 46 | NC(=O)Oc1ccc(Cc2ccccc2)cc1
> 46 | Nc1nccs1
> 46 | Cl.N=C(N)NC(=N)N1CCOCC1
> 46 | CCCCC(CC)CCC(CC(C)C)OS(=O)(=O)[O-].[Na+] (centres undefined)
> 46 | O=C(Nc1ccc(C(=O)O)c(O)c1)c1ccccc1
> 46 | C=CCSCC1Nc2cc(Cl)c(S(N)(=O)=O)cc2S(=O)(=O)N1 (centres undefined)

IC50 [µM] | SMILES
> 46 | COc1ccc([C@@H]2Sc3ccccc3N(CCN(C)C)C(=O)[C@@H]2OC(C)=O)cc1
> 46 | CN1CCN(C2=Nc3cc(F)ccc3Cc3ccccc32)CC1
> 46 | O=C1C2=C(C=C(C=C2O)O)O/C(=C\1O)C3=CC(=C(C=C3)O)O.O.O
> 46 | CN(C)CCn1nnnc1SCC1=C(C(=O)O)N2C(=O)[C@@H](NC(=O)Cc3csc(N)n3)[C@H]2SC1.Cl.Cl
> 46 | C/C1=C2N=C(/C=C3N=C(/C(C)=C4\[N]([Co+][CH2][C@H]5O[C@@H](n6cnc7c(N)ncnc76)[C@H](O)[C@@H]5O)C(C(CC(N)=O)C4(C)CCC(=O)NCC(C)OP(=O)([O-])O[C@H]4[C@@H](O)[C@@H](n5cnc6cc(C)c(C)cc65)O[C@@H]4CO)C4(C)N=C1C(CCC(N)=O)C4(C)CC(N)=O)C(CCC(N)=O)C\3(C)C)C(CCC(N)=O)C/2(C)CC(N)=O (some centres undefined)
> 46 | O=C(O)c1cc(O)nc(O)n1
> 46 | CC(C)[C@@H]1CC[C@@H](C)C[C@H]1O
> 46 | O=C1C(CCS(=O)c2ccccc2)C(=O)N(c2ccccc2)N1c1ccccc1 (centres undefined)
> 46 | OC(C#CCN1CCCC1)(c1ccccc1)c1ccccc1
> 46 | NCCN
> 46 | CCCc1c(OCCCCc2nnn[nH]2)ccc(C(C)=O)c1O
> 46 | CCN(CC)CCNC(=O)c1ccc(N)cc1
> 46 | COc1cc2[nH]c(=O)[nH]c(=O)c2cc1OC
> 46 | COc1cc2nc(N(C)CCCNC(=O)C3CCCO3)nc(N)c2cc1OC.Cl (centres undefined)
> 46 | CCOC(=O)c1c(C)n(C)c2ccc(O)cc12
